Measurements published in patent US11148998B2, “Dimethyl-nonatetraenyl-trimethyl-cyclohexyl compounds and uses thereof” (The Regents of the University of Michigan, priority 2017, dated 2021).
Entries after “also recorded” stand apart in the source; their conditions may differ.

Legend:
rhino mouse skin = test: Rhino mouse topical treatment: skin histology (horn-filled utriculi, epidermal thickness, inflammation); format: in vivo; conditions: topical, concentration not given; for inflammatory response / inflammatory cell infiltrate in histological sections (in words): 21 days
Text: FIGS. 12A-C: Efficacy of retinoids at normalizing structure of rhino mouse skin after topical treatment for 21 days.
FIGS. 13A-C: Dose related effect of Example 2 on rhino mouse skin.
The rhinomouse model is an industry-standard pre-clinical model for evaluation of retinoids for anti-acne activity. The mice can be treated topically over a course of days with the desired compound (either formulated or in liquid solvent). During the course of treatment, the animals can be evaluated grossly for skin irritation. At the end of the treatment phase, the animals are euthanized. Skin from treated sites can be evaluated for efficacy—reduction in the number of horn-filled utriculi—and for histological evidence of inflammation.
As a control, Tretinoin-0.1% was used. […] This is a commonly-prescribed anti-acne medicine.
One day after the last treatment, animals were euthanized. The animals were injected with 7 ml 10% buffered formalin after euthanasia. 15 minutes later the treated area on the back of the mouse was removed and cut into 8 pieces. Every other piece was taken, so four pieces of skin were mounted in one cassette and fixed for histology. An extra piece of skin from a non-treated area was also evaluated.
Hematoxylin and eosin stained sections were evaluated microscopically for epidermal thickness with measurements made in the inter-follicular regions at 4 representative sites per tissue strip.
The number of horn-filled utriculi was determined by direct counting in the entire section of skin. Each of the four sections per biopsy was used for determining the number of utriculi. Section lengths were measured as a way to normalize findings. Typically, the section of skin varied from 16-20 mm.
Slides were examined microscopically and inflammation was scored on a 0 to 4+ basis. A score of zero indicated no inflammation while increasing collection of inflammatory cells was identified with increasing score. Slides were also evaluated to determine if inflammation was confined to the dermis or whether there was epidermal inflammation. Dermal inflammation was assessed to determine if inflammatory cells were scattered throughout the dermis or whether small abscesses were also present. Finally, the inflammatory lesions were evaluated to determine whether they consisted of primarily mononuclear cells, granulocytic cells or both. A similar scale has been used previously in the assessment of skin irritation.
At the end of the in-life portion of the study, mice were euthanized by CO2 overdose. Hematoxylin and eosin-stained histological sections from each mouse in the control, ATRA-treated and Compound 2-treated groups were evaluated with regard to the number of horn-filled utriculi, epidermal thickness, and inflammation. Briefly, the epidermis of control mice consisted of a thin epidermis with large numbers of horn-filled utriculi (98+10 per 20 mm of epidermal linear length). […] Both the ATRA-treated mouse (top right panel) the Compound 2 treated skin (bottom panel) show both much thickened […] and disappearance of utriculi. […] There were large numbers of inflammatory cells in the dermis. Microabscesses could be seen in places, and migration of inflammatory cells into the epidermis was also evident. The infiltrate consisted of both mononuclear cells and granulocytes. […] The three other experimental retinoids were also examined along with Compound 2. […] In FIG. 13 it can be seen that during the dosing period 0.1% of Compound 2 led to skin thickening, but incomplete resolution of the utricali, whereas at 0.3% the utricali were more fully resolved.

human dermal fibroblasts [1] = test: Retinoid-induced fibroblast survival under low-calcium conditions; format: cell-based; conditions: KBM 0.1 mM calcium, three days, 0.1 to 5 μg/mL
Method: Human dermal fibroblasts are isolated from skin biopsies as described previously and grown in monolayer culture using DMEM supplemented with 10% fetal bovine serum as culture medium (see, e.g., Varani J, et al., J Clin Invest. 1994; 94; Varani J, et al., J. Invest. Dermatol. 94:717-723, 1990). Growth is at 37° C. in a humidified atmosphere containing 5% CO2 and 95% air. For experimental studies, cells are plated at 5×10^4 cells per well in wells of a 24-well culture dish in the same culture medium. One day later, cells are washed and the DMEM culture medium is replaced with Keratinocyte Basal Medium (KBM).
In this assay, low-passage human dermal fibroblasts are grown for three days in Keratinocyte Basal Medium (KBM) at a calcium concentration (0.1 mM) that is too low to support survival. […] How retinoids act to prevent fibroblast lysis is not fully understood, but part of the mechanism involves modulation of calcium transit across the cell membrane in the presence of the active retinoids (see, e.g., Varani J, et al., Am. J. Path. 136:1275-1281, 1990; Varani K, et al., Am J. Pathol. 147:718-729, 1995; Varani J, et al., Amer. J. Pathol. 148: 1307-1312, 1996).

human dermal fibroblasts [2] = test: Generation of pro-inflammatory cytokines by fibroblasts (multiplex ELISA); format: cell-based; conditions: KBM 1.5 mM calcium, two days, culture fluids
Method: Fibroblasts were grown in KBM supplemented with 1.5 mM calcium (i.e., as in the fibroblast cytotoxicity assay) for two days. Culture fluids obtained at the end of the incubation period were assessed for several pro-inflammatory cytokines using a multiplex (ELISA-type) assay. Values shown are means and ranges based on duplicate samples in a single experiment. The experiment was repeated two times with similar results.
It is believed that the pro-inflammatory cytokines are “drivers” of the retinoid-induced skin irritation response. […] In this experiment, fibroblasts were cultured for two days in KBM supplemented with 1.5 mM calcium (i.e., as in the cytotoxicity assay). Culture fluids were collected after two days of incubation and subjected to a multiplex enzyme-linked immunosorbant assay (ELISA) for the following cytokines: TNF-α, IL-1β, IL-6, IL-8, MCP-1 and CXCL-1.

[3] = test system: serum pro-inflammatory cytokines; conditions: mouse, in vivo
Text: Each of the 4 experimental retinoids was made up in DMSO as 0.1% and 0.3% solutions. The material was applied to the treatment area (2 cm^2 area) on a dot marked area on the inter-scapular back) once daily for 7 consecutive days or for 21 consecutive days. The test agent was gently rubbed into the test site after application. As a control, Tretinoin-0.1% was used. […] This is a commonly-prescribed anti-acne medicine. A set amount of the test article, DMSO, DMSO plus test drug, or Tretinoin cream (35 mg) was delivered using a Gilson MICROMAN fully adjustable positive placement pipette.
Serum was obtained from all mice at the end of the study and evaluated for levels of pro-inflammatory cytokines. For this, the same multiplex ELISA used with human samples was employed except that mouse-recognizing antibodies replaced antibodies used to detect the human counterparts.

[4] = test system: human skin in organ culture; conditions: cited from earlier work
[5] = test system: systemic cytokine release; conditions: intraperitoneal dosing; cited from earlier work
skin wounds = test: Wound healing in rats with steroid-induced atrophic skin; format: in vivo, rat
Text: FIGS. 15A-C: Results from a study in rats in which the skin was made atrophic by topical steroid treatment and then wounded. […] In the control animal (15CL), there was incomplete re-epithelialization over the wound and little collagen deposition in the dermis. […] The lack of irritation/inflammation is expected in the control animal but is unusual for a retinoid-treated animal. The data shown here was consistent over n=5 animals per group.
Given the lack of irritation associated with MDI 301, experiments were conducted reasoning that this retinoid might work in the acute wound setting. Essentially, a group of rats were treated with a potent steroid to induce skin atrophy followed by a wounding of the skin. Following this, rats were treated with vehicle alone or with MDI 301. […] It should be noted that in this study ATRA cannot be used, as its irritant properties exacerbate the original injury.

Compound | inflammatory response / inflammatory cell infiltrate in histological sections (in words) (rhino mouse skin) | number of utriculi compared to control (in words) (rhino mouse skin) | protection of fibroblasts from lysis (percentage of initially present cells still viable) (human dermal fibroblasts [1]) | induction of pro-inflammatory cytokines (TNF-α, IL-1β, IL-6, IL-8, MCP-1, CXCL-1) (human dermal fibroblasts [2]) | IL-1β serum level [3] | TNF-α serum level [3] | effect on collagen-degrading enzyme MMP-1 (collagenase 1) ([4]; human skin organ culture model) | procollagen I production ([4]; human skin organ culture model) | up-regulation of the pro-inflammatory cytokines that underlie retinoid-induced skin irritation ([4]; past studies) | systemic cytokine release [5] | histology of the wound site (skin wounds; 1% cream, after 13 days) | skin irritation and inflammation at the wound site (skin wounds; 1% cream, after 13 days) | healing of skin wounds compared to control rats (skin wounds; 1.0% cream, ~100 mgs daily to wound periphery, 13 days)
CC1=C(/C=C/C(C)=C\C=C\C(C)=C\C(=O)N2CCCC(=O)C2)C(C)(C)CCC1 [Example 3, 1-((2E,4E 6Z,8E)-3,7-dimethyl-9-(2,6,6-trimethylcyclohex-1-en-1-yl)nona-2,4,6,8-tetranonyl)piperidin-3-one] | did not produce an inflammatory response | reduced the number of utriculi as compared to control | capable of protecting fibroblasts from lysis under low-calcium conditions | much lower levels of the various cytokines than did ATRA | low | low | – | – | – | – | – | – | –
CC1=C(/C=C/C(C)=C\C=C\C(C)=C\C(=O)N(C)CC(=O)C2(C)CC2)C(C)(C)CCC1 [Example 4, (2E,4E,6Z,8E)-N,3,7-trimethyl—N-(2-(1-methylcyclopropyl)-2-oxoethyl)-9-(2,6,6-trimethylcyclohex-1-en-1-yl)nona-2,4,6,8-tetraenamide] | did not produce an inflammatory response | reduced the number of utriculi as compared to control | capable of protecting fibroblasts from lysis under low-calcium conditions | much lower levels of the various cytokines than did ATRA; also recorded: comparable to Compound 1 | low | low | – | – | – | – | – | – | –
CC1=C(/C=C/C(C)=C\C=C\C(C)=C\C(=O)OCC(=O)C(C)(C)C)C(C)(C)CCC1 [MDI 301] | – | – | – | – | – | – | inhibited the major collagen-degrading enzyme (MMP-1, collagenase 1) | induced procollagen I production | did not up-regulate the pro-inflammatory cytokines | did not elicit systemic cytokine release | confluent layer of epithelial keratinocytes over the wound site and a pronounced zone of fibroblast proliferation with new collagen formation under the epithelial layer | lack of skin irritation (15BR) and lack of inflammation (15CR) | healed more rapidly
